Legend:
[1] = target: T1, fibrin (clotted fibrinogen from human plasma) (Homo sapiens, UniProt P02671+P02675+P02679); experiment: Fibrin binding of Cu-64 labeled probes, dried fibrin plate, percentage bound; settings: dried fibrin wells, 37° C., unbound probe by well counting
T1 construct: thrombin cleaves fibrinopeptides on fibrinogen resulting in an end-to-end polymerization to give the polymer fibrin; Fibrinogen from human plasma (Calbiochem); purchased Calbiochem; host or cells: human plasma
T1 sequence (P02671 36-629 isoform P02671-2 limits assumed): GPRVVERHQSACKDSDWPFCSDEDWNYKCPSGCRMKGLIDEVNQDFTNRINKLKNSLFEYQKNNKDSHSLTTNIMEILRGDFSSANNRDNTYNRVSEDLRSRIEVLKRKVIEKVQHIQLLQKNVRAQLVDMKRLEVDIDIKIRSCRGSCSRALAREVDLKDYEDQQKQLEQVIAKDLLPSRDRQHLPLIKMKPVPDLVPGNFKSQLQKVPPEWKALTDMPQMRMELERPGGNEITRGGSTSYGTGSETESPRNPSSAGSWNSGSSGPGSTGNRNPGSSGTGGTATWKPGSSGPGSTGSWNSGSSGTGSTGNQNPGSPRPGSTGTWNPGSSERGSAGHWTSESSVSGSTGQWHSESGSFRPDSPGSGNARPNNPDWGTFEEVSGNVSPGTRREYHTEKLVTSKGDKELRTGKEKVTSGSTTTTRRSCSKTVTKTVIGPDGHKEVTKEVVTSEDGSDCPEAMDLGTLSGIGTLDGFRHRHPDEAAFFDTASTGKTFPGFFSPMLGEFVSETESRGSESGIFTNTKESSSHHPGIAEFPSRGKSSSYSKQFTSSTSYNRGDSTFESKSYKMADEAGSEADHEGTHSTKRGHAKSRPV
T1 sequence (P02675 45-491 limits assumed): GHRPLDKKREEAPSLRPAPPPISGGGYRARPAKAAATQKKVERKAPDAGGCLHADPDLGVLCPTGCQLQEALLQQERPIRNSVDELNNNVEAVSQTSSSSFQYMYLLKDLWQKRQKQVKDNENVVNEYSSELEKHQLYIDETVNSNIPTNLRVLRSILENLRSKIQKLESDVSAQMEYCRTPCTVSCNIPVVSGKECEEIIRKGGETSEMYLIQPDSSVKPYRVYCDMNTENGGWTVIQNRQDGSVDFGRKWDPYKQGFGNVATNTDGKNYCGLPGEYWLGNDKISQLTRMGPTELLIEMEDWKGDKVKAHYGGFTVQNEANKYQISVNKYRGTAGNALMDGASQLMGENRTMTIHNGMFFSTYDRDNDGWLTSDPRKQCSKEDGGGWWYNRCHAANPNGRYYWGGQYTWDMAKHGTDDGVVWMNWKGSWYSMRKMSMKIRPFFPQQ
T1 sequence (P02679 27-437 isoform P02679-2 limits assumed): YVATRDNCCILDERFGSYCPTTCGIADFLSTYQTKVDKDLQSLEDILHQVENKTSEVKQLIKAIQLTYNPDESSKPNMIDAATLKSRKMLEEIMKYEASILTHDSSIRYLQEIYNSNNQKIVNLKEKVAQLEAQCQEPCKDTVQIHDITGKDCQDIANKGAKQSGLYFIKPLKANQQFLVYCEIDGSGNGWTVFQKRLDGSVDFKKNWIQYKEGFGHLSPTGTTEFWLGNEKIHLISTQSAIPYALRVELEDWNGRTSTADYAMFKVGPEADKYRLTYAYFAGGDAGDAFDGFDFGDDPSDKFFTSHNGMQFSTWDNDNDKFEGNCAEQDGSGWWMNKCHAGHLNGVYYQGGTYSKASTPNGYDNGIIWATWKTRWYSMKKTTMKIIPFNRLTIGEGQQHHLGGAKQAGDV
Method: Fibrinogen from human plasma (Calbiochem) was dialyzed against 50 mM Tris, pH 7.4, 150 mM sodium chloride, 5 mM sodium citrate (TBS·citrate). The fibrinogen concentration was adjusted to 5 mg/mL and CaCl2 was added (7 mM). The fibrinogen solution (50 μL) was dispensed into the wells of a 96-well polystyrene microplate (Immulon-II). A solution (50 μL) of human thrombin (2 U/mL) in TBS was added to each well to clot the fibrinogen. The plates were incubated at 37° C. and evaporated to dryness overnight. The plates were sealed with tape and stored at −20° C. until use. The wells with dried fibrin were incubated at 37° C. with known concentrations of the probes. The concentration of the unbound probe was determined by well counting. The concentration of the bound probe=[total]−[unbound]. The percentage bound probe was given by [(bound probe)/total probe)]×100.

[2] = test system: Thrombus; experiment: MR-PET imaging in a rabbit model of occlusive arterial thrombus; assay type: in vivo; settings: i.v., MR angiogram with gadofosveset
Method: The occlusive thrombus model was similar to the one described above. Briefly, a male New Zealand white rabbit (2.5 kg) was sedated with a mixture of ketamine and xylazine and anaesthetized with isoflurane (1-2% in 70% N2O and 30% O2) and body temperature was kept at 37.5° C. A day old autologous blood clot was injected into the right internal carotid artery (ICA). The femoral vein was cannulated for intravenous delivery of the imaging agents. Simultaneous PET and MR were acquired on a clinical 3T MRI-BrainPET scanner using a home-built receive surface coil and a CP transmit coil. After baseline MR scans were acquired, the compound 21 was administered at a dose of […]. The blood pool MR contrast agent gadofosveset was injected at a dose of 0.1 mmol Gd/kg to acquire an angiographic image.

- % bound (percentage bound probe) [1]: 98.7%
Substance: Gd3-EP-2104R-Cu [Compound 21]
- PET signal at occluded right internal carotid artery [2]: hyperintense PET signal in the right internal carotid (ICA)

Source: patent US9200017B2, “Multimodal imaging of fibrin” (The General Hospital Corporation, priority 2009, dated 2015)
